Results as given in patent US20250042889A1, “3CLPRO PROTEASE INHIBITOR” (SHANGHAI QILU PHARMACEUTICAL RESEARCH AND DEVELOPMENT …, priority 2021, published 2025).

What was measured:
[1] = biological target: SARS-COV-2 3CLpro/Mpro protease (Severe acute respiratory syndrome coronavirus 2 (2019-nCoV) (SARS-CoV-2), UniProt P0DTD1); test: Inhibitory effect on SARS-COV-2 3CLpro/Mpro protease by fluorescence resonance energy transfer; type: biochemical; settings: activity intervals A-D, read-out: IC50 (nM), Inhibition on SARS-CoV-2 3CLpro/Mpro protease
[2] = male, CD1, mouse, in vivo, po, 10 mg/kg
in vivo = settings: male, CD1, mouse; for AUC / Vd / clearance / Cmax: in vivo; for half-life: plasma

Work on CNc1cncc(C(=O)N2CCC[C@@H](Nc3c(C(=O)N4CCO[C@H](C)C4)cc(Br)cc3[N+](=O)[O-])C2)c1 [Example 35] yielded an IC50 [1] of 10 to 50 nM, an F [2] of 60% and an AUC (in vivo; iv, 1 mg/kg) of 112 ng·h/mL. The Vd (in vivo; iv, 1 mg/kg) was 1.28 L/kg, the clearance (in vivo; iv, 1 mg/kg) was 9.12 mL/min/kg and the AUC (in vivo; po, 10 mg/kg) was 668 ng·h/mL. The Cmax (in vivo; po, 10 mg/kg) was 1020 ng/mL and the half-life (in vivo; iv, 1 mg/kg) was 8.1 min.
Work on CNc1cncc(C(=O)N2CCC[C@@H](Nc3c(C(=O)N4CCCC(F)(F)C4)cc(Br)cc3[N+](=O)[O-])C2)c1 [Example 36, (R)-(5-bromo-2-((1-(5-(methylamino)nicotinoyl)piperidin-3-yl)amino)-3-nitrophenyl)(3,3-difluoropiperidin-1-yl)methanone] yielded an IC50 [1] of 10 to 50 nM, an F [2] of 29.7% and an AUC (in vivo; iv, 1 mg/kg) of 92 ng·h/mL. For the same molecule, the Vd (in vivo; iv, 1 mg/kg) was 1.7 L/kg, the clearance (in vivo; iv, 1 mg/kg) was 11.2 mL/min/kg and the AUC (in vivo; po, 10 mg/kg) was 273 ng·h/mL. The Cmax (in vivo; po, 10 mg/kg) was 365 ng/mL and the half-life (in vivo; iv, 1 mg/kg) was 8.16 min.
Molecule CNc1cncc(C(=O)N2CCC[C@@H](Nc3c(C(=O)N4CCOC(F)(F)C4)cc(Br)cc3[N+](=O)[O-])C2)c1 [Example 295] has an IC50 [1] of 10 to 50 nM, an F [2] of 36.3% and an AUC (in vivo; iv, 1 mg/kg) of 136 ng·h/mL. The Vd (in vivo; iv, 1 mg/kg) was 1.06 L/kg, the clearance (in vivo; iv, 1 mg/kg) was 7.4 mL/min/kg and the AUC (in vivo; po, 10 mg/kg) was 494 ng·h/mL. For the same molecule, the Cmax (in vivo; po, 10 mg/kg) was 697 ng/mL, the half-life (in vivo; iv, 1 mg/kg) was 7.62 min and the half-life (in vivo; po, 10 mg/kg) was 11.6 min.
O=C(c1cc(Br)cc([N+](=O)[O-])c1N[C@@H]1CCCN(C(=O)[C@H]2CNCC(F)(F)C2)C1)N1CCCCC1 [Example 320] gave an IC50 [1] of 10 to 50 nM, an F [2] of 27.7% and an AUC (in vivo; iv, 1 mg/kg) of 156 ng·h/mL. It also gave a Vd (in vivo; iv, 1 mg/kg) of 2.1 L/kg, a clearance (in vivo; iv, 1 mg/kg) of 6.3 mL/min/kg and an AUC (in vivo; po, 10 mg/kg) of 280 ng·h/mL. The Cmax (in vivo; po, 10 mg/kg) was 825 ng/mL, the half-life (in vivo; iv, 1 mg/kg) was 21.6 min and the half-life (in vivo; po, 10 mg/kg) was 26.2 min.
In the case of CNc1cncc(C(=O)N2C[C@H](Nc3c(C(=O)N4C[C@@H](C)O[C@@H](C)C4)cc(Br)cc3[N+](=O)[O-])C[C@@H](OC)C2)c1 [Example 422], the IC50 [1] is reported as 50 to 100 nM, the F [2] is reported as 62.6% and the AUC (in vivo; iv, 1 mg/kg) is reported as 102 ng·h/mL. For the same molecule, the Vd (in vivo; iv, 1 mg/kg) was 1.32 L/kg, the clearance (in vivo; iv, 1 mg/kg) was 9.82 mL/min/kg and the AUC (in vivo; po, 10 mg/kg) was 628 ng·h/mL. It also gave a Cmax (in vivo; po, 10 mg/kg) of 725 ng/mL, a half-life (in vivo; iv, 1 mg/kg) of 6.36 min and a half-life (in vivo; po, 10 mg/kg) of 19.2 min.
Molecule CNc1cncc(C(=O)N2C[C@H](Nc3c(C(=O)N4C[C@@H](C)O[C@@H](C)C4)cc(Br)cc3[N+](=O)[O-])C[C@@H](O[C@@H]3CCOC3)C2)c1 [Example 448] has an IC50 [1] of 10 to 50 nM.
For CO[C@H]1CN(C(=O)c2cncc3[nH]c(C)nc23)C[C@@H]1Nc1c(C(=O)N2C[C@@H](C)O[C@@H](C)C2)cc(Br)cc1[N+](=O)[O-] [Example 449, (5-Bromo-2-(((3S,4S)-4-methoxy-1-(2-methyl-3H-imidazol[4,5-c]pyridin-7-carbonyl)pyrrolidin-3-yl)amino)-3-nitrophenyl)((2S,6R)-2,6-dimethylmorpholinyl)methanone], the IC50 [1] was 50 to 100 nM.
For CNc1cncc(C(=O)N2C[C@H](Nc3c(C(=O)N4C[C@@H](C)O[C@@H](C)C4)cc(Br)cc3[N+](=O)[O-])C[C@H]2C(=O)NCc2ccnc(C(F)(F)F)n2)c1 [Example 450, (2S,4R)-4-((4-bromo-2-((2R,6S)-2,6-dimethylmorpholin-4-carbonyl)-6-nitrophenyl)amino)-1-(5-(methylamino)nicotinoyl)-N-((2-(trifluoromethyl)pyrimidin-4-yl)methyl) pyrrolidine-2-formamide], the IC50 [1] was 10 to 50 nM.
Molecule [2H]C([2H])([2H])Nc1cncc(C(=O)N2C[C@H](Nc3c(C(=O)N4C[C@@H](C)O[C@@H](C)C4)cc(Br)cc3[N+](=O)[O-])[C@@H](OC([2H])([2H])[2H])C2)c1 [Example 451] has an IC50 [1] of 10 to 50 nM.
With CNc1cncc(C(=O)N2C[C@H](Nc3c(C(=O)N4C[C@@H](C)O[C@@H](C)C4)cc(Br)cc3[N+](=O)[O-])C[C@@H](O[C@H]3CCOC3)C2)c1 [Example 452, (5-Bromo-2-(((3R,5R)-1-(5-(methylamino)nicotinoyl)-5-((S)-tetrahydrofuran-3-yl)oxy)piperidin-3-amino)-3-nitrophenyl)((2S,6R)-2,6-dimethylmorpholinyl)methanone] the IC50 [1] was 50 to 100 nM.
For CO[C@H]1CN(C(=O)c2cncc3[nH]nnc23)C[C@@H]1Nc1c(C(=O)N2C[C@@H](C)O[C@@H](C)C2)cc(Br)cc1[N+](=O)[O-] [Example 454, (5-Bromo-2-(((3S,4S)-4-methoxy-1-(2-methyl-3H-1,2,3-triazole[4,5-c]pyridin-7-carbonyl)pyrrolidin-3-yl)amino)-3-nitrophenyl)((2S,6R)-2,6-dimethylmorpholinyl)methanone], the IC50 [1] was 10 to 50 nM.
Molecule CNc1cncc(C(=O)N2C[C@H](Nc3c(C(=O)N4C[C@@H](C)O[C@@H](C)C4)cc(Br)cc3[N+](=O)[O-])[C@@H](OCc3ccccc3)C2)c1 [Example 455] has an IC50 [1] of 10 to 50 nM.
CNc1cncc(C(=O)N2C[C@H](Nc3c(C(=O)N4C[C@@H](C)O[C@@H](C)C4)cc(Br)cc3[N+](=O)[O-])[C@@H](OCc3ccc(OC)nc3)C2)c1 [Example 456, (5-Bromo-2-(((3S,4S)-4-((6-methoxypyridin-3-yl)methoxy)-1-(5-methylamino)nicotinoyl)pyrrolidin-3-amino)-3-nitrophenyl)((2S,6R)-2,6-dimethylmorpholinyl)methanone] showed an IC50 [1] of 10 to 50 nM.
With CNc1cncc(C(=O)N2C[C@H](Nc3c(C(=O)N4C[C@@H](C)O[C@@H](C)C4)cc(Br)cc3[N+](=O)[O-])[C@@H](OCc3ccc(C(F)(F)F)nc3)C2)c1 [Example 457, (5-Bromo-2-((3S,4S)-1-(5-(methylamino)nicotinoyl)-4-((6-(trifluoromethyl)pyridin-3-yl)methoxy)pyrrolidin-3-amino)-3-nitrophenyl)((2S,6R)-2,6-dimethylmorpholinyl)methanone] the IC50 [1] was 100 to 200 nM.
CNc1cncc(C(=O)N2C[C@H](Nc3c(C(=O)N4C[C@@H](C)O[C@@H](C)C4)cc(Br)cc3[N+](=O)[O-])[C@@H](OCc3ccccn3)C2)c1 [Example 458] gave an IC50 [1] of 10 to 50 nM.
Work on CNc1cncc(C(=O)N2C[C@H](Nc3c(C(=O)N4C[C@@H](C)O[C@@H](C)C4)cc(Br)cc3[N+](=O)[O-])[C@@H](OCc3ccc(F)cn3)C2)c1 [Example 459] yielded an IC50 [1] of 10 to 50 nM.
For CNc1cncc(C(=O)N2C[C@H](Nc3c(C(=O)N4C[C@@H](C)O[C@@H](C)C4)cc(Br)cc3[N+](=O)[O-])[C@@H](OCc3ncco3)C2)c1 [Example 460], the IC50 [1] was 10 to 50 nM.
CNc1cncc(C(=O)N2C[C@H](Nc3c(C(=O)N4C[C@@H](C)O[C@@H](C)C4)cc(Br)cc3[N+](=O)[O-])[C@@H](OCc3nccs3)C2)c1 [Example 461] showed an IC50 [1] of 10 to 50 nM.
CNc1cncc(C(=O)N2C[C@H](Nc3c(C(=O)N4C[C@@H](C)O[C@@H](C)C4)cc(Br)cc3[N+](=O)[O-])[C@@H](OCc3cncn3C)C2)c1 [Example 462, (5-Bromo-2-(((3S,4S)-4-((1-methyl-1H-imidazol-5-yl)methoxy)-1-(5-(methylamino)nicotinoyl)pyrrolidin-3-yl)amino)-3-nitrophenyl)((2S,6R)-2,6-dimethylmorpholinyl)methanone] gave an IC50 [1] of 10 to 50 nM.
